The target in experiment [1] is α-glucosidase from Saccharomyces cerevisiae. Nature of the experiment: α-Glucosidase inhibitory assay. In kind it is biochemical. The following applies: Table 3; mean ± SEM (n = 3); NA: not active. The procedure:
α-Glucosidase inhibitory activity of the flavonoids was carried out according to the standard method with minor modification. […] A solution of 30 mM phosphate buffer (pH 6.5) was used to prepare stock solution of the sample to form a final concentration of 160 μg/mL. Then, 10 μL/well of sample was mixed with 15 μL/well of α-glucosidase from Saccharomyces cerevisiae (Megazyme, Ireland). 50 mM buffer (pH 6.5) was used to prepare the enzyme solution. Then, 115 μL/well of 30 mM buffer (pH 6.5) was added and incubated for 5 min at room temperature. Then, 75 μL/well of PNP-glucoside was added to initiate reaction and incubated at room temperature for 15 min. Finally, about 50 μL glycine at pH 10 was added to stop the reaction. The final volume of 250 μL of compound, positive control, enzyme, 30 mM buffer, and substrate was located in 96-well microplate. The absorbance (Abs) was measured using microplate reader (Tecan NanoQuant Infinite M200, Switzerland) at 405 nm to represent the amount of p-nitrophenol released from PNP-glucoside. […] The equation given below was used to calculate the inhibitory activity (%):(4) Inhibitory activity%=Abs control−Abs sample/Abs control×100%.
Tested on yeast α-glycosidase, the reaction is initiated by reacting the inhibitor (sample) with the α-glycosidase enzyme that competes with […] for the binding site, thus releasing ρ-nitrophenol which was measured in the assay.

Experiment [2] is described as follows: Ferric reducing antioxidant power (FRAP). The following applies: for FRAP (AAE μg): ascorbic acid equivalent, mean ± SEM (n = 3), Table 2. The method, then:
This assay was based on the reduction of the ferric tripyridyltriazine (Fe III-TPTZ) complex to the ferrous ion (Fe II) at a low pH forming an intense blue color. In the FRAP assay, compounds that are rich in antioxidant effect exert their action by breaking the free radical chain by donating a hydrogen atom. Briefly, ferric reducing antioxidant power (FRAP) reagent (2.5 mL of a 10 mM TPTZ solution in 40 mM HCl, 2.5 mL of 20 mM FeCl3, and 25 mL of 0.1 M acetate buffer pH 3.6) was prepared and incubated for 10 min at 37°C. Then 20 μL of each compound and ascorbic acid (standard) and 40 μL of FRAP reagent were added to 140 μL of distilled water in a 96-well plate producing a blue-colored solution. The solutions were kept at room temperature for 20 min in the dark and then measured at 593 nm with a microplate reader (Tecan, Switzerland) using a reagent blank composed of 40 μL of FRAP reagents in 200 μL of distilled water. A calibration curve was prepared with a serial dilution of ascorbic acid (standard). The total antioxidant capacity was calculated by interpolating the measured absorbance of the calibration curve and expressed as ascorbic acid equivalents. The results were corrected for dilution and expressed as AAE μg of ascorbic acid/g.

Experiment [3] has as its target T1, xanthine oxidase from buttermilk (Bos taurus, UniProt P80457).
T1 construct: 0.3 U/mL enzymes (xanthine oxidase from buttermilk); purchased Sigma-Aldrich (Singapore); host or cells: buttermilk (natural source)
Briefly: Xanthine oxidase inhibitory assay (XOI). The following applies: for xanthine oxidase inhibitory effect (in words): discussion; for IC50: xanthine oxidase inhibition, 295 nm, mean ± SEM (n = 3), NA: not active. In kind it is biochemical. The procedure:
XO catalyzes the oxidation of hypoxanthine to xanthine and subsequently to uric acid. The inhibition of XO reduces both vascular oxidative stress and circulating levels of uric acid. This assay is based on the fact that the superoxide anions are generated by the xanthine. The xanthine oxidase inhibitory activity was measured spectrophotometrically (Tecan NanoQuant Infinite M200, Switzerland) at 295 nm under aerobic condition with slight modification. The reaction mixture contained 50 mM phosphate buffer (pH 7.5), 0.15 mM xanthine (substrate), and 0.3 U/mL enzymes (xanthine oxidase from buttermilk). Samples were prepared by dissolving 1 mg in 5% DMSO in MeOH which gives sample concentration of 144.0 μg/mL in assay. […] The absorption increment at 295 nm indicates the formation of […] of uric acid/min at 25°C. […] All determination was done in triplicate and half maximal concentration (IC50) values were calculated from the percentage of inhibition. XO inhibition activity was expressed as the percentage inhibition of XO as follows:(3) % of inhibition=AbsA−B−C−D/AbsA−B×100, where A is the negative control with B as the blank of A which is without the enzyme and the sample while C is the activity of the sample with enzyme with D as the blank of the sample without enzyme.

Experiment [4] in a line: Rapid screening of radical scavenging activity by dot blot assay (DPPH staining). The following applies: silica sheet stained with DPPH in MeOH, dilutions from 1000 μg/mL. The procedure: An aliquot (20 μL) of each dilution of each group was carefully loaded on a […] TLC plate and allowed to dry for 10 min. Drops of each sample were loaded in the order of decreased concentration along the 16 columns. The staining of the silica plate was based on the procedure of Soler-Rivas et al.. […] The intensity of the yellow color depends upon the amount and nature of radical scavenger present in the flavonoids.
Background: DPPH is a stable violet radical that fades when it is reduced.

A short description of experiment [5]: ABTS+ radical scavenging assay. The settings on record: 734 nm, mean ± SEM (n = 3). The method, then:
An improved ABTS^+ radical decolorization assay was carried out involving direct production of the blue/green ABTS^+ chromophore through the reaction between ABTS and potassium persulfate. Addition of antioxidant to the preformed radical cation reduces it to ABTS to an extent on a time scale depending on the antioxidant activity, the concentration of the antioxidant, and the duration of the reaction. 1 ml ABTS was dissolved in water to make 7 mM concentration of the resultant solution. […] The resultant reaction mixture was allowed to stand in the dark at room temperature for 12–16 h before being used. The ABTS^+ radical solution was diluted with MeOH to an absorbance of 0.7 (±0.02) at 734 nm. Then, 100 μl of sample at various concentrations (1000–0.4889 μg/mL) was mixed with 100 μL of diluted ABTS^+ radical. Each concentration was analyzed in triplicate and the percentage decrease of absorbance at 734 nm with a microplate reader (Tecan NanoQuant Infinite M200, Switzerland) was calculated for each point and the antioxidant capacity of the tested compounds was expressed as percent inhibition (%). The radical scavenging activity of the compounds was measured according to the following equation [29]:(2) % inhibition=Acontrol−Asample/Acontrol×100. IC50 values were calculated by linear regression of plots, and the average percent of scavenging capacity was taken from three replicates. Trolox was used as a standard in comparison for the determination of the antioxidant activity of the flavonoids.

≈ marks a conversion by molar mass, not a printed value.

T1 sequence (P80457 whole entry): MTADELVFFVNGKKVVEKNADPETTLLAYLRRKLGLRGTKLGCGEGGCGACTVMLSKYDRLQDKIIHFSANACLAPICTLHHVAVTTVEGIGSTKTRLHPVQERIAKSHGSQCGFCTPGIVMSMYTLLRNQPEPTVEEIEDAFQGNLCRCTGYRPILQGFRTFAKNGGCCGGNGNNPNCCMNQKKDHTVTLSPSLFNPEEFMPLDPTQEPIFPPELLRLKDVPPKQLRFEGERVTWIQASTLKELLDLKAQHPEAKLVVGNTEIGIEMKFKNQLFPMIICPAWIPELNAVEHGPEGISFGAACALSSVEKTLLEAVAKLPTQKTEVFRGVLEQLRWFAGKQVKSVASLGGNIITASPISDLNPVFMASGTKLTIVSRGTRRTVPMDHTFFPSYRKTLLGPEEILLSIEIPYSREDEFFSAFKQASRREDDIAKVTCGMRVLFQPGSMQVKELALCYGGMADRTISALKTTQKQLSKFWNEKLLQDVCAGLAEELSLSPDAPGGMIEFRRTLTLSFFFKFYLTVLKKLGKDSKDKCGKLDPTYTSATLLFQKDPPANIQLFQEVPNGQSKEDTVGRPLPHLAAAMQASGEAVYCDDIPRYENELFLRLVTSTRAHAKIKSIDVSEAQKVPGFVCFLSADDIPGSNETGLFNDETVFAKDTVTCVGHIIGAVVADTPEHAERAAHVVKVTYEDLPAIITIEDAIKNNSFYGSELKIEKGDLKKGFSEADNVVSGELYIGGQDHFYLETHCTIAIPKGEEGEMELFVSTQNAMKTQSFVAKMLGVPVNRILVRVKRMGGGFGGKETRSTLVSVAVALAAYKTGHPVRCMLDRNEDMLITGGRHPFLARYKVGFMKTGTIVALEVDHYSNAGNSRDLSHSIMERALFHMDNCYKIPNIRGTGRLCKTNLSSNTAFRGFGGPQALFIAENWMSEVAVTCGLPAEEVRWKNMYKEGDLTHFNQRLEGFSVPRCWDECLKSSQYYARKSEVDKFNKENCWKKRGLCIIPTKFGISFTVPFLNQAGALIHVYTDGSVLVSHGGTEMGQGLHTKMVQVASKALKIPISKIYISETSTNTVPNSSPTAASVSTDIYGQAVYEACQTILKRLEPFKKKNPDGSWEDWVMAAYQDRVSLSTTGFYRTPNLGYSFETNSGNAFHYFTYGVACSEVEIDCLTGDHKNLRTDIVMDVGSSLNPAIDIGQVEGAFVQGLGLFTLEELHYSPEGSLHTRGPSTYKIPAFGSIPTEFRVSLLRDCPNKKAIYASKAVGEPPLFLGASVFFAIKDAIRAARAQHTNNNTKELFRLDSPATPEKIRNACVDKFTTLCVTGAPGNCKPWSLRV

By IC50 is commonly meant the concentration needed to halve the response being measured. Turning to `COc1cc(O)c2c(=O)cc(-c3ccccc3)oc2c1` [Techtochrysin, 5-Hydroxy-7-methoxyflavone], the “IC50 α-Glucosidase” value in experiment [1] is given as >100^A µg/mg. Moreover, in experiment [2], the FRAP antioxidant capacity is 11.49 ± 0.32 AAE μg of ascorbic acid/g and the “FRAP (AAE μg)” value was 11.49 ± 0.32^F AAE μg. Further, in experiment [3], the “xanthine oxidase inhibitory effect (in words)” value is recorded as “low xanthine oxidase inhibitory activity” and the IC50 was > 373 µM. Also, the “radical scavenging activity by dot blot (intensity of yellow spots)” value in experiment [4] is on record as “intermediate radical scavenging activity”. In experiment [5], the “IC50 ABTS+” value is 45.59 ± 4.75^E µg/ml.
As for `O=c1cc(-c2ccc(O)c(O)c2)oc2c(O)c(O)cc(O)c12` [Hypolaetin, 3′,4′,5,7,8-Pentahydroxyflavone], the “IC50 α-Glucosidase” value in experiment [1] is reported as 48.42 ± 9.71 µg/mL (≈ 160 µM). The “FRAP (AAE μg)” value in experiment [2] was 177.37 ± 1.82^B AAE μg. Also, in experiment [3], the “xanthine oxidase inhibitory effect (in words)” value was “low xanthine oxidase inhibitory activity” and the IC50 was > 331 µM. Moreover, the “radical scavenging activity by dot blot (intensity of yellow spots)” value in experiment [4] was “strong radical scavenging activity”. For the same compound, the “IC50 ABTS+” value in experiment [5] is reported as 0.80 ± 0.03^FG µg/ml.

For the origin of these results see article PMC5727842, “Antioxidant and Antidiabetic Effects of Flavonoids: A Structure-Activity Relationship Based Study” (BioMed Research International, 2017).
